Patent US20080171794A1, “HUMECTANT COMPOSITION” (TAKASAGO INTERNATIONAL CORPORATION, priority 2007, published 2008)

System: inside of the forearm
Experiment: Skin conductance with time after water supply to the site treated with emollient milk
Type: in vivo, human
Conditions: conclusion from Tables 5 and 6; conductance on forearm after water supply
Method: Each of the emollient milks described in Table 3 was applied to the inside of the forearm in the same manner in Test Example 2, and dried for 30 minutes. A drop of distilled water was placed on that site to conduct water supply for 10 seconds, followed by wiping off. Then, the conductance values were measured with time for 15 minutes (n=3).
Process: Emollient milks having the same components as described in Table 3 with the exception that 3-(menthoxy)propane-1,2-diol was substituted by p-menthane-3,8-diol were prepared (Example 3 and Comparative Example 3). Each was applied to the inside of the forearm in an amount of 65 mg/cm^2, and evaluated in the same manner as in Test Example 3.

In the case of `CC1CCC(C(C)(C)O)C(O)C1` (stereo not shown) [p-menthane-3,8-diol], the “water-retention function (in words)” value is reported as “excellent water-retention function”.
